Reference: patent US20170042809A1, “STABLE LIPOSOMAL FORMULATIONS OF CARBONIC ANHYDRASE INHIBITORS FOR OCULAR DRUG DELIVERY” (Peregrine Ophthalmic PTE LTD., priority 2015, published 2017)
Where a name gives a salt, the structure may show the parent alone.

Legend:
[1] = Stability of LipoDH and dorzolamide HCl aqueous solution on storage at 5° C.; assay type: physicochemical
Method: The LipoDH formulation was described above in EXAMPLE 2. A dorzolamide HCl aqueous solution was prepared by dissolving 200 mg dorzolamide HCl in 20 mL of PBS. The dorzolamide content of both formulations was analyzed after storing them at 5° C. for 7 and 14 days. The temperature was monitored and recorded continuously to ensure stable temperature conditions.

[2] = In-vitro drug release by dialysis against PBS pH 7.4, HPLC; assay type: physicochemical; conditions: within 48 hours, dialysis (MWCO 8-10 kDal) against PBS pH 7.4
Method: Drug release studies were performed by dialysing a dorzolamide HCl solution and LipoDH prepared as described above in EXAMPLE 2 and EXAMPLE 3, respectively, against PBS at a pH of 7.4 and measuring the amount of dorzolamide released by HPLC.
Briefly, 1 mL of dorzolamide HCl solution and 1 ml LipoDH were each loaded into a dialysis tube (molecular weight cut-off of 8-10 kDal) before placing the tube into 40 mL of PBS in a 50 mL tube. The PBS in the tubes was sampled at 1, 4, 7, 24, 48, 72 and 96 hours at which time the dorzolamide concentration was measured by HPLC.
The cumulative drug release percentage vs release time for both dorzolamide HCl solution (unencapsulated) and LipoDH (encapsulated) was calculated and plotted. […] Without a doubt, encapsulation of dorzolamide in a liposome results in a formulation capable of sustained drug delivery.

CCN[C@H]1C[C@H](C)S(=O)(=O)c2sc(S(N)(=O)=O)cc21 [dorzolamide HCl]
degradation percentage ([1]; at 7 days, storage at 5° C.): 57.9%
degradation percentage, Start of Stability Test ([1]; start of stability test): 0.0%
drug content, Start of Stability Test ([1]; start of stability test): 9.5 mg/mL
degradation percentage, 7 Days Incubation ([1]; stored at 5° C. for 7 days): 57.9%
drug content, 7 Days Incubation ([1]; stored at 5° C. for 7 days): 4.0 mg/mL
degradation percentage, 14 Days Incubation ([1]; stored at 5° C. for 14 days): 58.9%
drug content, 14 Days Incubation ([1]; stored at 5° C. for 14 days): 3.9 mg/mL
cumulative drug release percentage [2]: 80%
